How the values were obtained:
Type in all cases: in vivo, C57BL/6 J mice
[1] = system: choroidal neovascularization (CNV) mouse model; assay: Laser-induced choroidal neovascularization (CNV) mouse model of wet AMD: size of neovascularization (FFA, Isolectin B4 staining); conditions: 7 days after laser; for size of neovascularization compared to the PBS control group: NMN/NR 500 mg per kg i.p. daily for 10 days, Aflibercept intravitreal, FFA and Isolectin B4 staining, p<0.001 vs PBS
Experimental: (§1) In this study, 8-week-old (18-20 g) C57BL/6 J adult mice were used. The mice were maintained according to the guidelines for the use of animals in ophthalmic and vision research set forth by the Association for Research in Vision and Ophthalmology (ARVO). All animal experiments were approved by the Institutional Animal Care and Use Committee (IACUC) of Yonsei University College of Medicine (IACUC number: 2022-0279). C57BL/6 J mice were maintained on a 12:12 hour light/dark cycle.
(§2) Mice were anesthetized using a 1:1 mixture of tiletamine and zolazepam (15 mg per kg body weight) along with Xylazine hydrochloride (10 mg per kg body weight). The pupils were dilated using Phenylephrine (0.5%) and tropicamide (0.5%). During the anesthesia and pupil dilation, a heating pad was used to maintain the body temperature at 37° C.
(§3) After confirming pupil dilation, the mice were positioned on the support of the laser device (GYC-1000 Specifications, 532 nm). A drop of 2% Hypromellose solution was placed on the corneal surface, and a glass cover slip was positioned to contact the cornea for visualization of the fundus. Additionally, the height and distance of the support were adjusted to ensure the laser was accurately positioned on the retina.
(§4) The settings for the laser used in the experiment were as follows: output: 150 mW/spot size: 50 μm, time: 50 ms. After positioning the optic nerve in the center, the laser direction was indicated using a clock face, applying a total of 4 laser shocks at the 3 o'clock, 6 o'clock, 9 o'clock, and 12 o'clock positions, once each. The successful performance of the laser shock was confirmed by the generation of bubbles in the retina, with no hemorrhage observed in the retina.
(§5) To compare the choroidal neovascularization (CNV) induced by the laser shock, mice were sacrificed 7 days after the laser shock, and to evaluate the fibrosis induced by the laser shock in the sub-retinal area, mice were sacrificed 4 weeks after the laser shock.
In this study, Nicotinamide mononucleotide (NMN) purchased from ORIENTAL YEAST CO and Nicotinamide riboside (NR) purchased from ChromaDex were used. Starting three days before the creation of the laser-induced mouse model, NMN and NR were administered intraperitoneally daily at a concentration of 500 mg per kg of body weight. […]
After the staining process was completed, the flat-mounted tissue was spread on the slide, a drop of mounting media was applied, and a glass cover was placed over it. Fluorescent images were taken using a fluorescence microscope (Olympus; BX43).
(§6) The size of neovascularization and fibrotic areas was measured using ImageJ software. […] Then, a threshold was applied to measure the size, followed by quantification of pixels. […]

[2] = system: subretinal fibrosis; assay: Subretinal fibrosis in laser-induced neovascular wet macular degeneration model (Collagen type I staining, OCT); conditions: for expression of Collagen type 1 compared to the PBS negative control group: 500 mg per kg i.p. daily from three days prior, NMN vs PBS p<0.001, NR vs PBS p<0.002; for production of subretinal fibrosis associated with neovascular macular degeneration: FIG. 3 legend
Experimental: as §1, §2, §3, §4, §5
(§7) In this study, Nicotinamide mononucleotide (NMN) purchased from ORIENTAL YEAST CO and Nicotinamide riboside (NR) purchased from ChromaDex were used. Starting three days before the creation of the laser-induced mouse model, NMN and NR were administered intraperitoneally daily at a concentration of 500 mg per kg of body weight.
(§8) Mice were sacrificed using carbon dioxide, and the extracted eyeballs were fixed in 1% paraformaldehyde for 1 hour. After fixation, they were sequentially treated with 10%, 20%, and 30% sucrose solutions for 1 hour each. For sectioning, the eyeballs were positioned so that the connection between the optic nerve and the center of the cornea was horizontally aligned using OCT compound, and rapid freezing was performed using liquid nitrogen vapor. The eyeballs were stored at −70° C.
(§9) The eyeballs were sectioned to a thickness of […], and thereafter, staining procedures were performed using primary and secondary antibodies. After staining, a drop of mounting media was applied to the tissue on the slide, and a cover glass was placed over it.
For flat mounting, the muscle, cornea, lens, and neural retina were removed. Then, the retinal pigment epithelium/choroid/sclera complex was radially incised eight times to create a petal-like structure. It was placed in a 1 ml microtube and stained with primary and secondary antibodies. […]
as §6

[3] = system: senescence markers p16INK4a, p21CIP1, γ-H2AX, p53 and SA-β-gal in retinal pigment epithelium/choroid/sclera complex; assay: Senescence phenotype in laser-induced neovascular wet AMD model (SA-β-gal staining, immunofluorescence of senescence markers)
Experimental: as §1, §2, §3, §4, §7, §8, §9
The primary antibodies used in this study are as follows: Isolectin GS-IB4, Alexa Fluor™ 488 conjugate (121411); Collagen I antibody (ab34710); p16INK4a antibody (ab108349); gamma H2A.X antibody (ab2893); p53 antibody (sc-126); p21CIP1 antibody (sc-6246).
Mouse eyes were enucleated, and the anterior segments were removed to isolate the retinal pigment epithelium/choroid/sclera complex. The complex was rinsed with cold PBS and then fixed at room temperature for 20 minutes using the fixative solution provided in the SA-β-galactosidase (SA-β-GAL) staining kit. Staining was performed using the staining solution mixture provided according to the manufacturer's instructions (BioVision; #K320). After overnight staining at 37° C., the samples were incubated at 55° C. for 45 minutes with 10% H2O2 to remove the pigment. Following rinsing with PBS, the samples were flattened using forceps and a surgical knife. Images were captured using a fluorescent microscope (Olympus; BX43).
SA-β-gal staining analysis, an early method for identifying senescent cells in tissues, was used. Additionally, the expression of senescence markers such as p16INK4a, p21CIP1, γ-H2AX, and p53 is increased in senescent cells. […]

[4] = seventh day post-laser induction, immunofluorescence staining

Molecule: nicotinamide mononucleotide [NMN]
- size of neovascularization compared to the PBS control group [1]: significantly reduced
- fibrosis by OCT and immunofluorescence staining on sections compared to the negative control group ([2]; 28th day post-laser shock, 500 mg per kg i.p. daily): reduced
- expression of Collagen type 1 compared to the PBS negative control group ([2]; 28th day post-laser shock): significantly reduced
- production of subretinal fibrosis associated with neovascular macular degeneration [2]: inhibit
- aging phenotype induced in a neovascular wet AMD model ([3]; FIG. 2 legend): inhibits
- SA-β-gal staining of the retinal pigment epithelium/choroid/sclera complex compared to the PBS group ([3]; seventh day post-laser induction, NMN 500 mg per kg i.p. daily): reduced
- expression of p16INK4a protein compared to PBS [3, 4]: decreased
- expression of p21CIP1 protein compared to PBS [3, 4]: decreased
- expression of p53 protein compared to PBS [3, 4]: decreased
- expression of γ-H2AX protein compared to PBS [3, 4]: decreased

Molecule: Aflibercept [reference compound]
- neovascular size compared to the NMN and NR groups ([1]; Aflibercept vs NMN p>0.99, Aflibercept vs NR p>0.99): no significant difference
- size of neovascularization compared to the PBS control group [1]: significant reduction

Molecule: NC(=O)c1ccc[n+]([C@@H]2O[C@H](CO)[C@@H](O)[C@H]2O)c1 [NR, nicotinamide riboside]
- size of neovascularization compared to the PBS control group [1]: significantly reduced
- expression of Collagen type 1 compared to the PBS negative control group ([2]; 28th day post-laser shock): significantly reduced
- production of subretinal fibrosis associated with neovascular macular degeneration [2]: inhibit
